Measurements: patent publication US7625894B2, “Pyrrolo[2,3-d]Pyrimidines as Protein Tyrosine Kinase Inhibitors” (Novartis AG, priority 2004, dated 2009)

Experiments:
VEGF receptor (KDR) = target: T1, VEGF receptor (KDR) (Homo sapiens, UniProt P35968); assay: Inhibition of VEGF-induced KDR-receptor autophosphorylation in transfected CHO cells; format: cell-based
T1 construct: expressed in transfected cells
Procedure: The inhibition of VEGF-induced KDR-receptor autophosphorylation can be confirmed with a further in vitro experiment in cells: transfected CHO cells, which permanently express human VEGF receptor (KDR), are seeded in complete culture medium with 10% fetal calf serum (FCS) in 6-well cell-culture plates and incubated at 37° C. under 5% CO2 until they show about 80% confluency. The compounds to be tested are then diluted in culture medium (without FCS, with 0.1% bovine serum albumin) and added to the cells. (Controls comprise medium without test compounds). After two hours of incubation at 37° C., recombinant VEGF is added; the final VEGF concentration is 20 ng/mL). After a further five minute incubation at 37° C., the cells are washed twice with ice-cold PBS (phosphate-buffered saline) and immediately lysed in 100 μL lysis buffer per well. The lysates are then centrifuged to remove the cell nuclei, and the protein concentrations of the supernatants are determined using a commercial protein assay (BIORAD). The lysates can then either be immediately used or, if necessary, stored at −20° C.
A sandwich ELISA is carried out to measure the KDR-receptor phosphorylation: a monoclonal antibody to KDR (for example Mab 1495.12.14) is immobilized on black ELISA plates (OptiPlate™ HTRF-96 from Packard). The plates are then washed and the remaining free protein-binding sites are saturated with 1% BSA in PBS. The cell lysates (20 μg protein per well) are then incubated in these plates overnight at 4° C. together with an anti-phosphotyrosine antibody coupled with alkaline phosphatase (PY20: AP from Transduction Laboratories). […] The luminescence is measured in a Packard Top Count Microplate Scintillation Counter (Top Count). The difference between the signal of the positive control (stimulated with VEGF) and that of the negative control (not stimulated with VEGF) corresponds to VEGF-induced KDR-receptor phosphorylation (=100%). The activity of the tested substances is calculated as % inhibition of VEGF-induced KDR-receptor phosphorylation, wherein the concentration of substance that induces half the maximum inhibition is defined as the IC50 (effective dose for 50% inhibition).

[1] = target: c-erbB2 tyrosine kinase (HER-2) (Homo sapiens, UniProt P04626); assay: Inhibition of c-erbB2 tyrosine kinase (HER-2); format: biochemical; set-up: dose or concentration left out as unconfirmed
Source text: The inhibition of c-erbB2 tyrosine kinase (HER-2) can be measured, for example, in the same way as the inhibition of EGF-R protein kinase, using known procedures.

Bcr-Abl = target: T2, Bcr-Abl (Homo sapiens, UniProt P00519); assay: Test for activity against Bcr-Abl (phosphorylation ELISA in 32D-bcr/abl cells); format: cell-based, murine; settings: 32D cells transfected with p210 Bcr-Abl; ELISA of Bcr-Abl phosphorylation; read-out: bcrabl32DcEL/ Average<32Dp210IC50 [umol l−1]>
T2 construct: host or cells: murine myeloid progenitor cell line 32Dcl3 (32D-bcr/abl); the other entry of the earlier key: BCR (P11274, Breakpoint cluster region protein)
Procedure: Test for activity against Bcr-Abl. The murine myeloid progenitor cell line 32Dcl3 transfected with the p210 Bcr-Abl expression vector pGDp210Bcr/Abl (32D-bcr/abl) was obtained from J. Griffin (Dana Faber Cancer Institute, Boston, Mass., USA). The cells express the fusion Bcr-Abl protein with a constitutively active Abl kinase and proliferate growth factor independent. The cells are expanded in RPMI 1640 (AMIMED), 10% fetal calf serum, 2 mM glutamine (Gibco) (“complete medium”), and a working stock is prepared by freezing aliquots of 2×10^6 cells per vial in freezing medium (95% FCS, 5% DMSO (SIGMA)). After thawing, the cells are used during maximally 10-12 passages for the experiments.
For cellular assays, compounds are dissolved in DMSO and diluted with complete medium to yield a starting concentration of 10 μM followed by preparation of serial 3-fold dilutions in complete medium. 200,000 32D-Bcr/Abl cells in 50 μL complete medium are seeded per well in 96 well round bottom tissue culture plates. 50 μL per well of serial 3-fold dilutions of the test compound are added to the cells in triplicates. Untreated cells are used as control. The compound is incubated together with the cells for 90 min at 37° C., 5% CO2, followed by centrifugation of the tissue culture plates at 1300 rpm (Beckman GPR centrifuge) and removal of the supernatants by careful aspiration taking care not to remove any of the pelleted cells. The cell pellets are lysed by addition of 150 μL lysis buffer (50 mM Tris/HCl, pH 7.4, 150 mM sodium chloride, 5 mM EDTA, 1 mM EGTA, 1% NP-40, 2 mM sodium ortho-vanadate, 1 mM PMSF, 50 μg/mL aprotinin and 80 μg/mL leupeptin) and either used immediately for the ELISA or stored frozen in the plates at −20° C. until usage.
Black ELISA plates (Packard HTRF-96 black plates) are precoated over night at 4° C. with 50 ng/well of the rabbit polyclonal anti-abl-SH3 domain Ab 06-466 from Upstate in 50 μL PBS. After washing 3 times with 200 μL/well PBS containing 0.05% Tween20 (PBST) and 0.5% TopBlock (Juro), residual protein binding sites are blocked with 200 μL/well PBST, 3% TopBlock for 4 h at room temperature followed by incubation with 50 μL lysates of untreated or compound-treated cells (20 μg total protein per well) for 3-4 h at 4° C. After 3 washings, 50 μL/well anti-phosphotyrosine Ab PY20(AP) labeled with alkaline phosphatase (Zymed) diluted to 0.2 μg/mL in blocking buffer is added and incubated over night (4° C.). For all incubation steps the plates are covered with plate sealers (Costar). Finally, the plates are washed another three times with washing buffer and once with deionized water before addition of 90 μL/well of the AP-substrate CDPStar RTU with Emerald II. The plates, now sealed with Packard TopSeal™-A plate sealers, are incubated for 45 min at room temperature in the dark and luminescence is quantified by measuring counts per second (CPS) with a Packard Top Count Microplate Scintillation Counter (Top Count). The difference between the ELISA-readout (CPS) obtained for with the lysates of the untreated 32D-Bcr/Abl cells and the readout for the assay-background (all components, but without cell lysate) is calculated and taken as 100% reflecting the constitutively phosphorylated Bcr-Abl protein present in these cells. The activity of the compound on the Bcr-Abl kinase activity is expressed as percent reduction of the Bcr-Abl phosphorylation. The values for the IC50 and IC90 are determined from the dose response curves by graphical extrapolation.

T2 sequence (P00519 28-1130 limits assumed): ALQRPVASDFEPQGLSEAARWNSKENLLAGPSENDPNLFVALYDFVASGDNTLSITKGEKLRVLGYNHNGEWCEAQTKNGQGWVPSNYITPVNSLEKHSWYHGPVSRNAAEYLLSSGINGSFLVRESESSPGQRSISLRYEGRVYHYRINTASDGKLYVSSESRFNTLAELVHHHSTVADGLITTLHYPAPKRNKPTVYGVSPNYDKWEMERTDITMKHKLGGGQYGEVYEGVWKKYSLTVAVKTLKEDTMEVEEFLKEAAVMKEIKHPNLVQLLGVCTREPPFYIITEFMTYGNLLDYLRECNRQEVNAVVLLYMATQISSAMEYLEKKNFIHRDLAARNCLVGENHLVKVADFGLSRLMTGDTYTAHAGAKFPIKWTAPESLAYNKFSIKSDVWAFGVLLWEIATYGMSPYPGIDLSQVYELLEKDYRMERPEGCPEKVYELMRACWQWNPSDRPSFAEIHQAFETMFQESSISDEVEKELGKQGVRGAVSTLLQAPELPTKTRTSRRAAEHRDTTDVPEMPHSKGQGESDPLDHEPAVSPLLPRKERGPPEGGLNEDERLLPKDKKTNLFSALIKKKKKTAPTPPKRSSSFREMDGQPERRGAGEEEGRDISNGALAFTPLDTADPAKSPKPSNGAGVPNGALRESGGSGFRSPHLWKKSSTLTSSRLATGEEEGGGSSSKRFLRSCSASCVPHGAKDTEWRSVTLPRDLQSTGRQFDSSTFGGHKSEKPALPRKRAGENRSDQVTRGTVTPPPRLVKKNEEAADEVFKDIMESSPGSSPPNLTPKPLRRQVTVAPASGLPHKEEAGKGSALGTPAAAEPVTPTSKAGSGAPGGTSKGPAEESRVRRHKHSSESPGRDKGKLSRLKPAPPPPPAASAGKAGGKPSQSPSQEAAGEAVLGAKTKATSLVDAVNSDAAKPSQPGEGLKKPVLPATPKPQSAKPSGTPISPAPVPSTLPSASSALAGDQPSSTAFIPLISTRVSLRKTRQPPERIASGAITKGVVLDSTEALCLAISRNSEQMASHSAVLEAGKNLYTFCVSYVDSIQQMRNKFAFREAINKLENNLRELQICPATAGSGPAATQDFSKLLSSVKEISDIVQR
T1 sequence (P35968 20-1356): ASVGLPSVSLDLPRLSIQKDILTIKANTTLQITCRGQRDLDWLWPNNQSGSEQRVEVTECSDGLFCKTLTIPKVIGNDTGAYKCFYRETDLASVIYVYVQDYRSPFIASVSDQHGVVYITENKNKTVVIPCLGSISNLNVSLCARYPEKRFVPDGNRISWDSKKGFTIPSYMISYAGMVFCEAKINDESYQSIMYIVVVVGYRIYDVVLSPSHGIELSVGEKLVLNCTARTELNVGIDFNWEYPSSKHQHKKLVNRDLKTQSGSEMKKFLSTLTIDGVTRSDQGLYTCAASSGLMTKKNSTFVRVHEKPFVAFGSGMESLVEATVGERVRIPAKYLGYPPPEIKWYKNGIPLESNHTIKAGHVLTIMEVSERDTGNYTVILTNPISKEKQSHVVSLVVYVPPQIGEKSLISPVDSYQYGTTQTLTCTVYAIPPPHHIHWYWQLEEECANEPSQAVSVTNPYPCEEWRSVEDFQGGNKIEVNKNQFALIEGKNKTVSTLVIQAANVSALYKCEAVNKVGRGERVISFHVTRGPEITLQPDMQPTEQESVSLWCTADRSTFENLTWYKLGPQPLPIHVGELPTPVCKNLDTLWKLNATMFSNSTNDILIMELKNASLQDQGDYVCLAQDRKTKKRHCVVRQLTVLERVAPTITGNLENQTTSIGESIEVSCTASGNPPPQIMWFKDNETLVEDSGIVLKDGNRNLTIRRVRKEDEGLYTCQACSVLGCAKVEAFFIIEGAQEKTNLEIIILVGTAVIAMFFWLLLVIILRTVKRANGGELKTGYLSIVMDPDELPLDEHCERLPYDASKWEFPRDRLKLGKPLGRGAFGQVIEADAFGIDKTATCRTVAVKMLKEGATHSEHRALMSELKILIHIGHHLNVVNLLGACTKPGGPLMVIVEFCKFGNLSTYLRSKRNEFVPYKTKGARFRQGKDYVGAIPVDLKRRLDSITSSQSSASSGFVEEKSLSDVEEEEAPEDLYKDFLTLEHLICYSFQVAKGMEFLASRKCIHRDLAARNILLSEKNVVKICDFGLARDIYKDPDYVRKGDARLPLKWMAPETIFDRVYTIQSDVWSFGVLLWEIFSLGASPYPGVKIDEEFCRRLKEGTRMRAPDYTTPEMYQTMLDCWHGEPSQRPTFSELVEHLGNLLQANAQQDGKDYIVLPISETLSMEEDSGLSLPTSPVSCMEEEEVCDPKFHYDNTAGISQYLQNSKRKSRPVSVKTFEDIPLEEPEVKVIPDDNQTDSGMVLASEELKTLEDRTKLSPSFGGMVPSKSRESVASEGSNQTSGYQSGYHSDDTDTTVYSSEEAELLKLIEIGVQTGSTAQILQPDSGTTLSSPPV
c-erbB2 tyrosine kinase (HER-2), sequence (P04626 23-1255): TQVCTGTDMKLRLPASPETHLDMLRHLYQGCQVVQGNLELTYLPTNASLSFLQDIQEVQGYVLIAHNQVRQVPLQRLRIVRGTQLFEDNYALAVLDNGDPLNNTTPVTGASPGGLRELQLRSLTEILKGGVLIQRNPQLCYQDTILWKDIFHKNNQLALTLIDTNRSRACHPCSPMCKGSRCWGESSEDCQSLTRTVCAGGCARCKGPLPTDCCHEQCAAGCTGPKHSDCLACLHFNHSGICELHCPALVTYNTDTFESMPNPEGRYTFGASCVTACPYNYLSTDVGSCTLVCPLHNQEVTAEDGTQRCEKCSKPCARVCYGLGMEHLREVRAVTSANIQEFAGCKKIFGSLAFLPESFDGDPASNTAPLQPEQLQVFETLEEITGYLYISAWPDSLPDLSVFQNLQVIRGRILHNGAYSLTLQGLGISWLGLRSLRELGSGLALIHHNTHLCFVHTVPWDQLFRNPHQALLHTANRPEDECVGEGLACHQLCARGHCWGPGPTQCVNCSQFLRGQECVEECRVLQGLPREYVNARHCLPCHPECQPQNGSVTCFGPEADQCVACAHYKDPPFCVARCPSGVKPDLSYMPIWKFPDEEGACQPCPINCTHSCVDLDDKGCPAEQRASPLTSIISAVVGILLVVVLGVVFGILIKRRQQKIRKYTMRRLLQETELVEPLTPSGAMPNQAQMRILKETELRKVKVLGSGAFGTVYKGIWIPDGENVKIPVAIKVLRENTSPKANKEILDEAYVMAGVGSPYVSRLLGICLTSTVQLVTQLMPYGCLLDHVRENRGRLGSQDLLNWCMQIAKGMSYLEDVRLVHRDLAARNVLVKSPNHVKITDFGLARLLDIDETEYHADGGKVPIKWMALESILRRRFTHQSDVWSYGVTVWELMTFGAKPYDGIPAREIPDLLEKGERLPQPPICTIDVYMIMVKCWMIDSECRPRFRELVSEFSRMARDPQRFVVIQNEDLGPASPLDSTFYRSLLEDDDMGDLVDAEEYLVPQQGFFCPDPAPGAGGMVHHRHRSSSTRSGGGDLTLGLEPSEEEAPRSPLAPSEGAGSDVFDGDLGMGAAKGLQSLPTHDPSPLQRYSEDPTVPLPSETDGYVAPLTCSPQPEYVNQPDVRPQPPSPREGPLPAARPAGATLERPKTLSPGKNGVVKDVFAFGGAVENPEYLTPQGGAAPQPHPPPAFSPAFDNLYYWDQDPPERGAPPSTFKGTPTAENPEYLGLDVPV

`CCC(O)(CC)c1ccc(-c2cc3c(NCCCn4cccc4)ncnc3[nH]2)cc1` [Example 33, 3-{4-[4-(3-Pyrrol-1-yl-propylamino)-7H-pyrrolo[2,3-d]pyrimidin-6-yl]-phenyl}-pentan-3-ol] was tested. Which “KDR (% inh)” value (VEGF receptor (KDR)) did it give?
The value was 84%.

And the “HER-2/%-inh. [%]” value [1]?
Its value is 88%.

What about the IC50 (Bcr-Abl) of the same compound?
The IC50 was 2430 nM.
